Experiment: CLEAR OUTCOMES trial: time-to-event cardiovascular efficacy end points
Format: in vivo, human
Conditions: for Primary efficacy endpoint (MACE-4), Hazard Ratio (95% CI): Cox proportional hazards, P 0.004; for Fatal and non-fatal MI, Hazard Ratio (95% CI): P 0.002; for 3-component MACE, Hazard Ratio (95% CI): P 0.006
From the text: The CLEAR OUTCOMES trial was a randomized, placebo-controlled, double-blind trial that enrolled patients at 1250 sites in 32 countries. An independent Data Monitoring Committee reviewed safety and efficacy data during the trial.
Patients 18 to 85 years of age were eligible for enrollment if they met either of two criteria for increased cardiovascular risk, a prior cardiovascular event (secondary prevention) or clinical features that placed them at high risk for a cardiovascular event (primary prevention). (Nicholls S, Lincoff A M, Bays H E, et al. Rationale and design of the CLEAR-outcomes trial: Evaluating the effect of bempedoic acid on cardiovascular events in patients with statin intolerance. Am Heart J. 2021 May; 235: 104-112) All patients provided written informed consent. Patients had to report statin intolerance due to an adverse effect that started or increased during statin therapy and resolved or improved after statin therapy was discontinued. Patients could be enrolled if they tolerated a very low average daily statin dose (e.g., an average daily dose of rosuvastatin <5 mg, atorvastatin <10 mg, simvastatin <10 mg, lovastatin <20 mg, pravastatin <40 mg, fluvastatin <40 mg, or pitavastatin <2 mg). Other lipid-lowering therapies were permitted, including ezetimibe, niacin, bile acid resins, fibrates, and/or proprotein convertase subtilisin kexin type 9 (PCSK9) inhibitors. Full inclusion and exclusion criteria are provided in Nicholls et al. (Am Heart J. 2021).
Eligible patients entered a 4-week run-in period during which patients were treated with single-blind placebo. If patients were intolerant to placebo treatment or if adherence was <80% by tablet count, they were not eligible for randomization. Patients who successfully completed the run-in period were randomly assigned in a 1:1 ratio to receive bempedoic acid at an oral dose of 180 mg or matching placebo, administered daily. Beginning 6 months after enrollment, the central laboratory notified the investigator if the patient's LDL-cholesterol level was ≥25% higher than baseline. These patients were counseled on healthy dietary guidelines and reminded to take all lipid-regulating medications. If repeat testing confirmed that LDL-cholesterol value met the threshold criteria, the provider could adjust the lipid-lowering treatment regimen per standard of care and local guidelines.
The primary end point was the first occurrence of a composite of death from cardiovascular causes, nonfatal myocardial infarction (MI), nonfatal stroke, or coronary revascularization. The first key secondary end point was time to the first occurrence of the composite of cardiovascular death, nonfatal stroke or MI. Further key secondary end points included time to first occurrence of each of the following outcomes tested in hierarchical order, fatal or nonfatal MI, coronary revascularization, fatal or nonfatal stroke, death from cardiovascular causes, and all-cause mortality.
This was an event-driven trial designed to provide at least 90% power to detect a 15% relative risk reduction for the primary composite end point at an overall two-sided significance level of 0.05. The trial required a minimum of 1620 primary composite events with >24 months of follow-up for all patients and at least 810 first key secondary end points. The average treatment duration was estimated to be 42 months and a lost-to-follow-up rate of 1% per year. Assuming a 3.59% annual event rate in the placebo group, enrollment of 12,600 patients was required, subsequently amended to 14,000. There were no interim efficacy analyses. A hierarchical approach was prespecified to evaluate sequentially each of the six key secondary efficacy end points with statistical significance at each step required to test the next hypothesis, thereby preserving the study-wise Type I error rate at 5%. All analyses were based on the intent-to-treat principle. […]

[1] = prespecified subgroup, interaction P=0.03
[2] = vs placebo, listed as bempedoic acid

CC(C)(CCCCCC(O)CCCCCC(C)(C)C(=O)O)C(=O)O [Bempedoic Acid, Bempedoic acid]
3-component MACE, % of patients (180 mg oral daily, N = 6992): 8.2%
5 component MACE, % of patients (180 mg oral daily, N = 6992): 11.9%
All-cause mortality, % of patients (180 mg oral daily, N = 6992): 6.2%
All-cause mortality, nonfatal MI, nonfatal stroke, or coronary revascularization, % of patients (180 mg oral daily, N = 6992): 13.8%
All-cause mortality, nonfatal MI, nonfatal stroke, or coronary revascularization, number of patients (180 mg oral daily, N = 6992): 962 number of patients
All-cause mortality, number of patients (180 mg oral daily, N = 6992): 434 number of patients
Coronary revascularization, % of patients (180 mg oral daily, N = 6992): 6.2%
Coronary revascularization, number of patients (180 mg oral daily, N = 6992): 435 number of patients
Death from cardiovascular causes, % of patients (180 mg oral daily, N = 6992): 3.8%
Death from cardiovascular causes, number of patients (180 mg oral daily, N = 6992): 269 number of patients
Fatal MI, % of patients (180 mg oral daily, N = 6992): 0.4%
Fatal MI, number of patients (180 mg oral daily, N = 6992): 29 number of patients
Fatal and non-fatal MI, % of patients (180 mg oral daily, N = 6992): 3.7%
Fatal and non-fatal MI, number of patients (180 mg oral daily, N = 6992): 261 number of patients
Fatal and non-fatal stroke, % of patients (180 mg oral daily, N = 6992): 1.9%
Fatal and non-fatal stroke, number of patients (180 mg oral daily, N = 6992): 135 number of patients
Fatal and nonfatal hemorrhagic stroke, % of patients (180 mg oral daily, N = 6992): 0.3%
Fatal and nonfatal hemorrhagic stroke, number of patients (180 mg oral daily, N = 6992): 20 number of patients
Fatal and nonfatal non-hemorrhagic stroke, % of patients (180 mg oral daily, N = 6992): 1.7%
Fatal and nonfatal non-hemorrhagic stroke, number of patients (180 mg oral daily, N = 6992): 118 number of patients
Fatal stroke, % of patients (180 mg oral daily, N = 6992): 0.3%
Fatal stroke, number of patients (180 mg oral daily, N = 6992): 18 number of patients
Hospitalization for unstable angina, % of patients (180 mg oral daily, N = 6992): 1.3%
Hospitalization for unstable angina, number of patients (180 mg oral daily, N = 6992): 91 number of patients
Non-fatal MI, % of patients (180 mg oral daily, N = 6992): 3.4%
Non-fatal MI, number of patients (180 mg oral daily, N = 6992): 236 number of patients
Non-fatal stroke, % of patients (180 mg oral daily, N = 6992): 1.7%
Non-fatal stroke, number of patients (180 mg oral daily, N = 6992): 119 number of patients
Primary efficacy endpoint (MACE-4), % of patients (180 mg oral daily, N = 6992, median follow-up 40.6 months): 11.7%
5 component MACE, number of patients (MACE-4 or hospitalization for unstable angina (MACE-5), 180 mg oral daily, N = 6992): 831 number of patients
effect on other key secondary end points: time to first occurrence of stroke, death from cardiovascular causes, all-cause mortality (compared with placebo): no significant effects
Primary efficacy endpoint (MACE-4), number of patients (death from cardiovascular causes, nonfatal MI, nonfatal stroke, or coronary revascularization, 180 mg oral daily, N = 6992, median follow-up 40.6 months): 819 number of patients
3-component MACE, number of patients (death from cardiovascular causes, nonfatal MI, or nonfatal stroke (MACE-3), 180 mg oral daily, N = 6992): 575 number of patients
New-onset type 2 diabetes mellitus, number of patients (n/N in patients with baseline glycemic status of no diabetes, 180 mg oral daily): 429/3848
New-onset type 2 diabetes mellitus, % of patients (patients with baseline glycemic status of no diabetes, 180 mg oral daily): (11.1) %
HR for the primary end point, primary prevention population [1]: 0.68
HR for the primary end point, secondary prevention population [1]: 0.91
5 component MACE, Hazard Ratio (95% CI) (vs placebo): 0.86 (0.78-0.94)
All-cause mortality, Hazard Ratio (95% CI) (vs placebo): 1.03 (0.90-1.18)
All-cause mortality, nonfatal MI, nonfatal stroke, or coronary revascularization, Hazard Ratio (95% CI) (vs placebo): 0.89 (0.82-0.97)
Death from cardiovascular causes, Hazard Ratio (95% CI) (vs placebo): 1.04 (0.88-1.24)
Fatal MI, Hazard Ratio (95% CI) (vs placebo): 1.38 (0.79-2.42)
Fatal and non-fatal stroke, Hazard Ratio (95% CI) (vs placebo): 0.85 (0.67-1.07)
Fatal and nonfatal hemorrhagic stroke, Hazard Ratio (95% CI) (vs placebo): 2.21 (1.01-4.85)
Fatal and nonfatal non-hemorrhagic stroke, Hazard Ratio (95% CI) (vs placebo): 0.78 (0.61-0.99)
Fatal stroke, Hazard Ratio (95% CI) (vs placebo): 1.12 (0.57-2.20)
Hospitalization for unstable angina, Hazard Ratio (95% CI) (vs placebo): 0.66 (0.50-0.86)
Non-fatal stroke, Hazard Ratio (95% CI) (vs placebo): 0.82 (0.64-1.05)
reduction in coronary revascularization (vs placebo): 19%
reduction in the composite of death from cardiovascular causes, stroke or MI (vs placebo): 15%
reduction in the incidence of fatal or nonfatal MI (vs placebo): 23%
reduction in the primary composite end point (death from cardiovascular causes, stroke, MI, or coronary revascularization) (vs placebo): 13%
Primary efficacy endpoint (MACE-4), Hazard Ratio (95% CI) (vs placebo): 0.87 (0.79-0.96)
Primary efficacy endpoint (MACE-4), Hazard Ratio (95% CI) [2]: 0.87
Coronary revascularization, Hazard Ratio (95% CI) (vs placebo, P 0.001): 0.81
Fatal and non-fatal MI, Hazard Ratio (95% CI) (vs placebo): 0.77 (0.66-0.91)
Fatal and non-fatal MI, Hazard Ratio (95% CI) [2]: 0.77
3-component MACE, Hazard Ratio (95% CI) (vs placebo): 0.85 (0.76-0.96)
3-component MACE, Hazard Ratio (95% CI) [2]: 0.85
New-onset type 2 diabetes mellitus, Hazard Ratio (95% CI) (vs placebo, patients with no diabetes at baseline): 0.95 (0.83-1.09)

— US20240226048A1, “METHODS OF TREATMENT USING BEMPEDOIC ACID” (Esperion Therapeutics, Inc., priority 2023, published 2024)
